Test results published in patent US20220041641A1, “QUATERNARY AMMONIUM SALTS AS INHIBITORS OF TRIMETHYLAMINE PRODUCTION” (Senda Biosciences, Inc., priority 2018, published 2022).
pIC50: −log10 of the molar value.

How the values were obtained:
[1] = test system: enzymatic activity in fecal matter; test: Inhibition of enzymatic activity in fecal matter; assay type: cell-based; details: d9-choline 1 mM, 16 hours at 37° C., anaerobic, d9-TMA by LCMS
Procedure: Inhibition of enzymatic activity in fecal matter was determined by adding a substrate (d9-choline, 1 mM final concentration) and a compound in a range of concentrations in order to determine an IC50. After incubation for a designated 16 hours at 37° C. in anaerobic conditions, samples were be prepared for LCMS analysis, and the amount of d9-TMA produced was determined using LCMS analysis as in the Examples above.

[2] = biological target: CutC from Proteus mirabilis (Proteus mirabilis, UniProt B4EYG1); test: Cell-based assay for TMA production from a native producer (P. mirabilis); details: d9-TMA from 1 mM d9-choline, 5 h, 37° C.; value 10 given when no fit or % TMA remaining at 10 μM higher than 15%; read-out: Average IC50 Whole cell P. mirabilis
Chain of CutC from Proteus mirabilis (B4EYG1 entry or part of it): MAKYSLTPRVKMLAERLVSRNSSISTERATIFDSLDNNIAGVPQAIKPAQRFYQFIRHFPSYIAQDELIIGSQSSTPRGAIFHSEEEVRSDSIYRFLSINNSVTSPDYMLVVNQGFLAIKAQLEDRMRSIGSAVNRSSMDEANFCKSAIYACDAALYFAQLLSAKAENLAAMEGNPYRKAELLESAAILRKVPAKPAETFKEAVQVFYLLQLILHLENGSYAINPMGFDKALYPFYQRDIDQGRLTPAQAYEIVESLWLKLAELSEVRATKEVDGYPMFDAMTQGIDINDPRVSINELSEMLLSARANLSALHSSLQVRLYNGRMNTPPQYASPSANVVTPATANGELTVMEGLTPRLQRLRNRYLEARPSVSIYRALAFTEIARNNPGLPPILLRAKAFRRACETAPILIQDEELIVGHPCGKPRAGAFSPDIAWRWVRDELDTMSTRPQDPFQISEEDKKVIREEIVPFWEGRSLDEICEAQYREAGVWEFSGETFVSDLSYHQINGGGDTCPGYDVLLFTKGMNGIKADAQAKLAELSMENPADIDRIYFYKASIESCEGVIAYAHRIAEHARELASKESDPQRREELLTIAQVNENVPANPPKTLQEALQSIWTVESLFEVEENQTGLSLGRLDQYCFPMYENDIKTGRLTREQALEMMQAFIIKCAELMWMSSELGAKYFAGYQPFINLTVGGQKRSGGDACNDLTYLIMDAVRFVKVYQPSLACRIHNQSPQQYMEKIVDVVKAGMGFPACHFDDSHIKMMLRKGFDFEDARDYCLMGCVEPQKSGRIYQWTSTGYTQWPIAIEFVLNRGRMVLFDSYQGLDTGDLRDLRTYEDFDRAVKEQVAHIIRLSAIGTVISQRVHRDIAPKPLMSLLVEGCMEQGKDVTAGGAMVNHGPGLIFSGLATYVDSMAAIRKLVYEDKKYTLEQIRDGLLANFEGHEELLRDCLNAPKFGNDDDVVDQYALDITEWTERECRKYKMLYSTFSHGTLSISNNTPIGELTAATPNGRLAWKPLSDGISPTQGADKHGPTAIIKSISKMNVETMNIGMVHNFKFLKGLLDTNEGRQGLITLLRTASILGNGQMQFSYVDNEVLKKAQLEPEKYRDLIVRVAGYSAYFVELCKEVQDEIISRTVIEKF
Chain of CutC from Proteus mirabilis (B4EYG0 entry or part of it, further chain): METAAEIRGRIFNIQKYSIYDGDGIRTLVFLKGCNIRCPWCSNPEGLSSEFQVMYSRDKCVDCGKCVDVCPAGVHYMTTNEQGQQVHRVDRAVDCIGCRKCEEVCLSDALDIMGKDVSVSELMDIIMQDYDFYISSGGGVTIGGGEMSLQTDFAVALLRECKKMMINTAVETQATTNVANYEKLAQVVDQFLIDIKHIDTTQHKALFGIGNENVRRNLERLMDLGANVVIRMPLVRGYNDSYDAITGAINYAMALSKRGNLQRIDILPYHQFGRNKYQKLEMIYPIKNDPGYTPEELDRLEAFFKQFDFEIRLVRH
Procedure, shortened: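 Overnight anaerobic cultures of P. mirabilis or C. sporogenes, grown in BHI with 1 mM choline, were diluted and given 1 mM (trimethyl-d9)-choline plus compound at 10 μM final. After 5 h at 37° C., d9-TMA was quantified by LCMS.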

[3] = assay type: in vitro ADME; details: simulated gi fluid, 1 µM, pH 1.6
Procedure: This assay was used to assess the stability of a conjugate in a stomach.
Medium was prepared by dissolving 2 g of sodium chloride in 0.6 L in ultrapure water (MilliQ®, Millipore Sigma, Darmstadt, Germany). The pH was adjusted to 1.6 with 1N hydrochloric acid, and the volume was then adjusted to 1 L with purified water.
60 mg FaSSIF powder (Biorelevant™, London, UK) were dissolved in 500 mL buffer (above). Pepsin was added (0.1 mg/mL) (Millipore Sigma, Darmstadt, Germany), and the solution was stirred. The resulting SGF media were used fresh for each experiment.
Test compounds were dissolved in DMSO stock to 1 mM. An aliquot of the DMSO stock solution was removed and diluted in the SGF Media in 15 mL falcon tubes to generate a total compound concentration of 1 μM. A 1 mL aliquot was immediately removed and diluted once with 1 volume of acetonitrile for T0 timepoint. The mixture was sealed and mixed at 37° C. in an incubator. Aliquots (1 mL) were removed at regular intervals and immediately quenched by the addition of 1 volume of acetonitrile. The resulting samples were analyzed by LCMS to determine degradation rates in SGF.

[4] = Caco-2 permeability assay; assay type: in vitro ADME; details: human, Caco-2, pH 7.4

## CC(=O)OC[C@H]1O[C@@H](OCC[N+](C)(C)C2CC2)[C@H](OC(C)=O)[C@@H](OC(C)=O)[C@@H]1OC(C)=O.[I-] [Compound 80, N,N-dimethyl-N-(2-{[(3R,4S,5R,6R)-3,4,5-tris(acetyloxy)-6-[(acetyloxy)methyl]oxan-2-yl]oxy}ethyl)cyclopropanaminium Iodide]
[1]
  pIC50: 6.42
[2]
  pIC50: ≤ 5.00
[3]
  Assay 1- FaSSGF Stability: % Remaining at 1 hr: 145.32%
[4]
  Papp A→B at 2 h, 1 µM: 0.28 ×10⁻⁶ cm/s
  Papp B→A at 2 h, 1 µM: 0.313 ×10⁻⁶ cm/s
